molecular target: Protein farnesyltransferase (Rattus norvegicus, UniProt Q02293+Q04631); assay: Tested for inhibitory activity against rat brain p21ras Ras Farnesyltransferase (FTase)

Question: With `CSCC[C@@H](NC(=O)CN1C(=O)[C@H](N(C)C(=O)[C@@H](N)CS)N=C(c2ccccc2)c2ccccc21)C(=O)O` as the compound, how does the IC50 read?
Answer: The IC50 was 80 nM.

Question: `CSCC[C@H](NC(=O)CN1C(=O)[C@H](N(C)C(=O)[C@@H](N)CS)N=C(c2ccccc2)c2ccccc21)C(=O)O` (stereo in doubt; form 1) was tested. Which IC50 did it give?
Answer: The IC50 was 370 nM.

Question: `CSCC[C@H](NC(=O)CN1C(=O)[C@H](N(C)C(=O)[C@@H](N)CS)N=C(c2ccccc2)c2ccccc21)C(=O)O` (stereo in doubt; form 2) was tested. Which IC50 did it give?
Answer: Its IC50 is 0.85 nM.

Question: For `CSCC[C@H](NC(=O)CN1C(=O)[C@H](N(C)C(=O)[C@@H](N)CS)N=C(c2ccccc2)c2ccccc21)C(=O)O` (stereo in doubt; form 3), which IC50 is on record?
Answer: Its IC50 is 2.1 nM.
